Article PMC6389909, “Isothermal Analysis of ThermoFluor Data can readily provide Quantitative Binding Affinities” (Scientific Reports, 2019)

How the values were obtained:
[1] = biological target: MBP; conditions: read-out: Kd reported in previous studies; cited from earlier work
[2] = biological target: T1, h-CA I (Homo sapiens, UniProt P00915); experiment: Esterase activity assay (4-nitrophenyl acetate), h-CA I; assay type: biochemical; design: purchased Sigma C4396; conditions: h-CA I 2 µM; 57 °C; noncompetitive inhibition fit; read-out: Ki (µM), from enzyme assay
Procedure: Carbonic anhydrase activity (h-CA I and b-CA II) was measured using a spectrophotometer (Molecular Devices, SpectraMax® i3x) as described elsewhere[73]. h-CA I was used at a final concentration of 2 µM and b-CA II was used at a final concentration of 0.5 µM in the buffer: 100 mM NaCl, 20 mM TRIS, pH 6.1, 1% DMSO. […] All reactions of h-CA I took place at 57 °C and reactions of b-CA II took place at 60 °C. […] Enzyme initial velocity was plotted with different substrate concentration using Prism6. Data were collected for each of the four inhibitors, and the change in initial velocities were analyzed with the “Enzyme-noncompetitive inhibition” equation in Prism6.

[3] = biological target: T1, h-CA I; experiment: SYPRO Orange DSF, isothermal analysis, carbonic anhydrase h-CA I
Procedure: All proteins (MBP, h-CA I and b-CA II) were used at a final concentration of 2 µM for this assay. SYPRO Orange (Invitrogen S6651) was used at a final concentration of 20X for MBP, and at 10X for the carbonic anhydrases. […] Carbonic anhydrase experiments were carried out in 100 mM NaCl, 20 mM TRIS, 1% DMSO, pH 6.1.
All DSF experiments were carried out with Eppendorf Realplex2 Mastercycler. Each sample was divided to three 50 µL replicates. Sample solutions were dispensed into 96-well optical reaction plate (Thermo Fisher Scientific 4306737) and the plate was sealed with optical PCR plate sheet (Thermo Fisher Scientific AB-1170). Fluorescence intensity was measured via the JOE emission filter (550 nm) and “PTS clear plate” was set as the background for the calibration. […] Melting curves were directly exported from the instrument, and then were analyzed with Prism 6 (GraphPad Software Inc.).
DSF data were analyzed in three steps. First, raw fluorescence data as a function of temperature were fit to a modified form of the thermodynamic equation, as follows:22 ΔG=ΔH(1−T/Tm)−ΔCp(Tm−T+Tln[T/Tm]) 23 KU=e^−ΔG/RT 24 Y(T)=[1/1+KU(mFT+bF)]+[KU/1+KU(mUT+bU)]
Here Equation 24 relates the observed fluorescence signal, Y, as a function of temperature (T). The two terms in this equation correspond to contributions from folded and unfolded protein, respectively. […]

T1 sequence (P00915 whole entry): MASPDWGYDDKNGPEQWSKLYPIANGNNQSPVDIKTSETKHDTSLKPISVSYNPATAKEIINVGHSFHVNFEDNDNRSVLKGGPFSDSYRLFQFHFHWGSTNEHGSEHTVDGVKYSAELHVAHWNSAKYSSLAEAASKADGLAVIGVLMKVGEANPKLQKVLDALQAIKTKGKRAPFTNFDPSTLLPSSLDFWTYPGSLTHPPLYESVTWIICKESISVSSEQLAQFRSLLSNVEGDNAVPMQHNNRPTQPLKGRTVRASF

Row | Ki [2] [µM] | EC50 [3] [nM] | Kd ([3]; Kd (µM), from DSF, h-CA I, 57 °C, 2 µM protein, no denaturant) [µM] | SMILES | Kd [1] [nM]
1 |  |  |  | OC[C@H]1O[C@H](O[C@H]2[C@H](O)[C@@H](O)C(O)O[C@@H]2CO)[C@H](O)[C@@H](O)[C@@H]1O (mixture of isomers) [maltose] | 500 to 2000
2 | < 1 | 1400 | < 0.5 | NS(=O)(=O)C(F)(F)F [TFMSA, trifluoromethanesulfonamide] | 
